pIC50: −log10 of the molar value.

The target of the first test is KRas G12C (Homo sapiens, UniProt P01116, C118S/C51S/C80L/G12C). As to the kind of experiment: KRas G12C Modification Assay (LCMS detection of covalent adduct). The class given is binding. As to conditions: 5 μM compound, 3 hours. How it is done:
A 10 μL aliquot of each protein solution was then transferred to a 384 well microtiter plate. Initial compound stocks were generated at fifty times their desired final assay concentration in DMSO.
Exemplary compounds of Formula (I) were diluted 25-fold into K-Ras Assay Buffer to a final of two times their final concentration. A 10 μL aliquot of each diluted compound solution was then added to each of the protein solutions in the microtiter plate to initiate reaction. […] At each time point, the reactions were quenched with 20 μL of a 25 mM acetic acid solution. […] Once all reactions were quenched, the plates were heat sealed and the samples were injected into a LC/MS system for data acquisition.
Samples were injected in their liquid phase onto a C-3 reverse phase column to remove assay buffer and prepare the samples for mass spectrometer. The proteins were eluted from the column using an acetonitrile gradient and fed directly into the mass analyzer. Initial raw data analysis took place in Agilent MassHunter software immediately post data acquisition.
Raw data analysis of the intact protein was exclusively a deconvolution of the multiple charge states of each protein in solution using a maximum entropy deconvolution provided in Mass Hunter. To minimize complexity, only the data over limited mass ranges were considered for analysis, with a minimum of one Dalton mass step intervals. The heights of all masses identified during raw data analysis were exported to be further analyzed in Spotfire® data analysis software.
Final data analysis was a multistep process in the Spotfire® data analysis software package. Briefly, each protein mass was calculated as a percent of the total signal of that sample, that percentage was then normalized to the percentage of signal of the protein in the absence of reactive compounds. Those normalized signals were reported as normalized percent of control (POC). […] Key: “A”≤25% POC; “B”>25% POC≤50% POC; “C”>50% POC and ND=not determined.
As for `C=CC(=O)N1CCN(c2nc(OCCCN3CCOCC3)nc3c2CCN(c2c(F)c(O)cc4ccccc24)C3)CC1` [Example 165, 1-[4-[7-(2-fluoro-3-hydroxy-1-naphthyl)-2-(3-morpholinopropoxy)-6,8-dihydro-5H-pyrido[3,4-d]pyrimidin-4-yl]piperazin-1-yl]prop-2-en-1-one], the “POC (normalized percent of control, KRas G12C modification)” value is listed as “C (“C”>50% POC)”.
As for `C=CC(=O)N1CCN(c2nc(OC[C@@H]3CCCN3C)nc3c2CCN(c2c(C(C)C)ccc4[nH]ncc24)C3)CC1` [Example 248, (S)-1-(4-(7-(5-isopropyl-1H-indazol-4-yl)-2-((1-methylpyrrolidin-2-yl)methoxy)-5,6,7,8-tetrahydropyrido[3,4-d]pyrimidin-4-yl)piperazin-1-yl)prop-2-en-1-one], the “POC (normalized percent of control, KRas G12C modification)” value is “C (“C”>50% POC)”.
Same read-out and setting: to `C=CC(=O)N1CCN(c2nc(OCCCN3CCOCC3)nc3c2CCN(c2cc(O)cc4sc(C)nc24)C3)CC1` [Example 166, 1-[4-[7-(6-hydroxy-2-methyl-1,3-benzothiazol-4-yl)-2-(3-morpholinopropoxy)-6,8-dihydro-5H-pyrido[3,4-d]pyrimidin-4-yl]piperazin-1-yl]prop-2-en-1-one] belongs “B (“B”>25% POC≤50% POC)”; to `C=CC(=O)N1CCN(c2nc(OCCCN3C[C@@H](F)[C@@H](F)C3)nc3c2CCN(c2cc(O)cc4ccccc24)C3)CC1` [Example 208, 1-(4-(2-(3-((3R,4S)-3,4-difluoropyrrolidin-1-yl)propoxy)-7-(3-hydroxynaphthalen-1-yl)-5,6,7,8-tetrahydropyrido[3,4-d]pyrimidin-4-yl)piperazin-1-yl)prop-2-en-1-one], “C (“C”>50% POC)”.
Same read-out and setting: with `C=CC(=O)N1CCN(c2nc(OCCCN3CCOCC3)nc3c2CCN(c2cc(O)cc4cccnc24)C3)CC1` [Example 205, 1-(4-(7-(6-hydroxyquinolin-8-yl)-2-(3-morpholinopropoxy)-5,6,7,8-tetrahydropyrido[3,4-d]pyrimidin-4-yl)piperazin-1-yl)prop-2-en-1-one] the entry was “C (“C”>50% POC)”; with `C=CC(=O)N1CCN(c2nc(OCCCN3CCOCC3)nc3c2CCN(c2c(C)c(O)cc4ccccc24)C3)CC1` [Example 173, 1-(4-(7-(3-hydroxy-2-methylnaphthalen-1-yl)-2-(3-morpholinopropoxy)-5,6,7,8-tetrahydropyrido[3,4-d]pyrimidin-4-yl)piperazin-1-yl)prop-2-en-1-one], “C (“C”>50% POC)”; with `C=CC(=O)N1CCN(c2nc(OCCCN3CCOCC3)nc3c2CCN(c2cc(O)cc4cc(C)[nH]c24)C3)CC1` [Example 167, 1-(4-(7-(5-hydroxy-2-methyl-1H-indol-7-yl)-2-(3-morpholinopropoxy)-5,6,7,8-tetrahydropyrido[3,4-d]pyrimidin-4-yl)piperazin-1-yl)prop-2-en-1-one], “B (“B”>25% POC≤50% POC)”.
On to `C=CC(=O)N1CCN(c2nc(OCCN(C)C)nc3c2CCN(c2cc(O)cc4ccccc24)C3)CC1CCO` (stereo not drawn) [Example 171, 1-(4-(2-(2-(dimethylamino)ethoxy)-7-(3-hydroxynaphthalen-1-yl)-5,6,7,8-tetrahydropyrido[3,4-d]pyrimidin-4-yl)-2-(2-hydroxyethyl)piperazin-1-yl)prop-2-en-1-one], for which the “POC (normalized percent of control, KRas G12C modification)” value is “C (“C”>50% POC)”.

A further test concerns Phospho-ERK in NCI-H358 cells expressing KRas G12C. The experiment in a line: Cellular inhibition of KRas G12C by Phospho-ERK measurement in NCI-H358 cells. The format is cell-based. As to conditions: Homo sapiens; NCI-H358 cells, 3 hours compound treatment; read-out: IC50 (pERK(Thr202/Tyr204) normalized with GAPDH). The method, boiled down: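 After 8–12 h attachment, NCI-H358 cells were treated with compounds for 3 h (0.5% DMSO final), fixed, methanol-permeabilized and immunostained. pERK(Thr202/Tyr204) was read by infrared imaging and normalized to GAPDH as percent of DMSO control. IC50 came from a 4-parameter fit.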
Turning to `C=CC(=O)N1CCN(c2nc(OC[C@@H]3CCCN3CC)nc3c2CCN(c2cccc4ccccc24)C3)CC1CC#N` (stereo partly drawn) [Example 233, 2-(1-acryloyl-4-(2-(((S)-1-ethylpyrrolidin-2-yl)methoxy)-7-(naphthalen-1-yl)-5,6,7,8-tetrahydropyrido[3,4-d]pyrimidin-4-yl)piperazin-2-yl)acetonitrile], the pIC50 is 6.00 to 9.00.
Same read-out and setting: to `C=CC(=O)N1CCN(c2nc(O[C@H](C)CN3CCCC3)nc3c2CCN(c2cc(O)cc4ccccc24)C3)CC1` [Example 120, (R)-1-(4-(7-(3-hydroxynaphthalen-1-yl)-2-((1-(pyrrolidin-1-yl)propan-2-yl)oxy)-5,6,7,8-tetrahydropyrido[3,4-d]pyrimidin-4-yl)piperazin-1-yl)prop-2-en-1-one] belongs 6.00 to 9.00; to `C=CC(=O)N1CCN(c2nc(OCCN3CCC[C@H](F)C3)nc3c2CCN(c2cc(O)cc4ccccc24)C3)CC1` [Example 111, (S)-1-(4-(2-(2-(3-fluoropiperidin-1-yl)ethoxy)-7-(3-hydroxynaphthalen-1-yl)-5,6,7,8-tetrahydropyrido[3,4-d]pyrimidin-4-yl)piperazin-1-yl)prop-2-en-1-one], 6.00 to 9.00.
The same measure, in the same setting: with `C=CC(=O)N1CCN(c2nc(OCCCN3CCCOCC3)nc3c2CCN(c2cc(O)cc4ccccc24)C3)CC1` [Example 101, 1-(4-(2-(3-(1,4-oxazepan-4-yl)propoxy)-7-(3-hydroxynaphthalen-1-yl)-5,6,7,8-tetrahydropyrido[3,4-d]pyrimidin-4-yl)piperazin-1-yl)prop-2-en-1-one] the figure was 6.00 to 9.00.
The same measure, in the same setting: to `C=CC(=O)N1CCN(c2nc(OC[C@@H]3CCCN3C)nc3c2CCN(c2cccc(C)c2C(F)(F)F)C3)CC1CC#N` (stereo partly drawn) [Example 265, 2-(1-acryloyl-4-(7-(3-methyl-2-(trifluoromethyl)phenyl)-2-(((S)-1-methylpyrrolidin-2-yl)methoxy)-5,6,7,8-tetrahydropyrido[3,4-d]pyrimidin-4-yl)piperazin-2-yl)acetonitrile] belongs 6.00 to 9.00.
`C=CC(=O)N1CCN(c2nc(OC[C@H]3CCCN3C)nc3c2CCN(c2cc(O)cc4ccccc24)C3)CC1CC#N` (stereo partly drawn) [Example 178, 2-[4-[7-(3-hydroxy-1-naphthyl)-2-[[(2R)-1-methylpyrrolidin-2-yl]methoxy]-6,8-dihydro-5H-pyrido[3,4-d]pyrimidin-4-yl]-1-prop-2-enoyl-piperazin-2-yl]acetonitrile]: the pIC50 is 6.00 to 9.00.
On the same count and under the same terms, to `C=CC(=O)N1CCN(c2nc(OC[C@@H]3CCCN3CC)nc3c2CCN(c2cc(O)cc4ccccc24)C3)CC1` [Example 197, (S)-1-(4-(2-((1-ethylpyrrolidin-2-yl)methoxy)-7-(3-hydroxynaphthalen-1-yl)-5,6,7,8-tetrahydropyrido[3,4-d]pyrimidin-4-yl)piperazin-1-yl)prop-2-en-1-one] belongs 6.00 to 9.00; to `C=CC(=O)N1CCN(c2nc(O[C@H](C)CN(C)C)nc3c2CCN(c2cc(O)cc4ccccc24)C3)CC1CC#N` (stereo partly drawn) [Example 150, 2-(1-acryloyl-4-(2-(((R)-1-(dimethylamino)propan-2-yl)oxy)-7-(3-hydroxynaphthalen-1-yl)-5,6,7,8-tetrahydropyrido[3,4-d]pyrimidin-4-yl)piperazin-2-yl)acetonitrile], 6.00 to 9.00.
Same read-out and setting: to `C=CC(=O)N1CCN(c2nc(OCC3CCN(CCOC)C3)nc3c2CCN(c2cc(O)cc4ccccc24)C3)CC1` (stereo not drawn) [Example 103, 1-(4-(7-(3-hydroxynaphthalen-1-yl)-2-((1-(2-methoxyethyl)pyrrolidin-3-yl)methoxy)-5,6,7,8-tetrahydropyrido[3,4-d]pyrimidin-4-yl)piperazin-1-yl)prop-2-en-1-one] belongs 6.00 to 9.00; to `C=CC(=O)N1CCN(c2nc(OCCCCN(C)C)nc3c2CCN(c2cc(O)cc4ccccc24)C3)CC1` [Example 40, 1-(4-(2-(4-(dimethylamino)butoxy)-7-(3-hydroxynaphthalen-1-yl)-5,6,7,8-tetrahydropyrido[3,4-d]pyrimidin-4-yl)piperazin-1-yl)prop-2-en-1-one], 6.00 to 9.00.
Consider `C=CC(=O)N1CCN(c2nc(OC[C@H]3CN(C)CCN3)nc3c2CCN(c2cccc4ccccc24)C3)CC1CC#N` (stereo partly drawn) [Example 224, 2-(1-acryloyl-4-(2-(((R)-4-methylpiperazin-2-yl)methoxy)-7-(naphthalen-1-yl)-5,6,7,8-tetrahydropyrido[3,4-d]pyrimidin-4-yl)piperazin-2-yl)acetonitrile], for which the pIC50 is 6.00 to 9.00.
With `C=CC(=O)N1CCN(c2nc(O[C@H](C)CN(C)C)nc3c2CCN(c2cc(O)cc4ccccc24)C3)[C@@H](C)C1` [Example 115, 1-((S)-4-(2-(((R)-1-(dimethylamino)propan-2-yl)oxy)-7-(3-hydroxynaphthalen-1-yl)-5,6,7,8-tetrahydropyrido[3,4-d]pyrimidin-4-yl)-3-methylpiperazin-1-yl)prop-2-en-1-one], the pIC50 is 6.00 to 9.00.
Same read-out and setting: to `C=CC(=O)N1CCN(c2nc(OC[C@@H]3CN(C)CCN3)nc3c2CCN(c2cccc4ccccc24)C3)CC1CC#N` (stereo partly drawn) [Example 223, 2-(1-acryloyl-4-(2-(((S)-4-methylpiperazin-2-yl)methoxy)-7-(naphthalen-1-yl)-5,6,7,8-tetrahydropyrido[3,4-d]pyrimidin-4-yl)piperazin-2-yl)acetonitrile] belongs 6.00 to 9.00.

Values taken from US11267812B2 (Mirati Therapeutics, Inc., priority 2016, dated 2022).
